Read-outs that look alike come from different tables or passages of the source.
What was measured:
Format in all cases: cell-based, human
[1] = system: PC3; experiment: 3H thymidine proliferation assay, PC3
In short: (§1)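 Seeding: 1.0×10^4 cells/well, 3 h. Dosing: 1:3 serial dilutions, 72 h. Label: ^3H-thymidine 1.0 μCi/well for last 24 h, scintillation read; EC50 = 50% proliferation reduction.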

[2] = system: OVCAR3; experiment: 3H thymidine proliferation assay, OVCAR3
In short: as §1

[3] = system: NCI-H460; experiment: ATP luminescence proliferation assay, NCI-H460
Description: (§2) This example generally describes the procedures used to assay the antiproliferative activity of compounds of this invention or their conjugates. Human tumor cell lines were obtained from the American Type Culture Collection (ATCC), P.O. Box 1549, Manassas, Va. 20108, USA, and cultured according to instruction from the ATCC. Cells were seeded at 1.0×10^3 or 1.0×10^4 cells/well in 96-well plates for 3 h for ATP assays or ^3H thymidine assays, respectively. 1:3 serial dilutions of free (unconjugated) compounds or their conjugates were added to the wells. Plates were allowed to incubate for 24 to 72 h. The ^3H thymidine plates were pulsed with 1.0 μCi of ^3H-thymidine per well for the last 24 hours of the total incubation period, harvested, and read on a Top Count Scintillation Counter (Packard Instruments, Meriden, Conn.). ATP levels in the ATP plates were measured using the […]-GLO® Luminescent Cell Viability kit following the manufacturer's manual and read on a GLOMAX® 20/20 luminometer (both from Promega, Madison, Wis., USA). The EC50 values—the concentration at which an agent inhibits or reduces cell proliferation by 50% —were determined using PRISM™ software, version 4.0 (GraphPad Software, La Jolla, Calif., USA).
(§3) Using the ^3H thymidine or the ATP luminescence assay, or both, the activities of compounds of this invention were assayed against the following cancer cell lines: HCT-15 (colorectal cancer, multi-drug resistant (MDR)); Hep3B (liver cancer); LNCaP (prostate cancer, androgen receptor positive (AR^+)); MDA-MB-231 (breast cancer, estrogen receptor, progesterone receptor, and Her2 negative (triple negative)); A2058 (melanoma); U-87 MG (glioblastoma); NCI-H460 (NSCLC); A549 (NSCLC); HPAC (pancreatic cancer, primary); PC3 (prostate cancer, AR); BT474 (breast cancer, Her2 highly positive (Her2hi)); SKOV3 (ovarian cancer, Her2hi); 786-O (renal cancer); UO-31 (renal cancer, MDR); NCI-H740 (SCLC); DMS53 (SCLC); SK-BR3 (breast cancer, Her2hi); ZR-75 (breast cancer, estrogen receptor positive); OVCAR3 (ovarian cancer); HL-60 (APL); OVCAR8/Adr (ovarian cancer, MDR); CEM-Cl (ALL); Nomo-1 (AML); RPMI-8226 (MM)); Raji (lymphoma); SW-480 (colorectal cancer, metastatic); SW-620 (colorectal cancer); and H226 (lung cancer). (Not all compounds were assayed against all cell lines.)
(§4) Table 3 provides the data for the ATP luminescence proliferation assays, with an incubation period of 48, 72, or 96 h, as noted.

[4] = system: CEM-Cl; experiment: ATP luminescence proliferation assay, CEM-C1
Description: as §2, §3, §4

[5] = system: SKOV3; experiment: ATP luminescence proliferation assay, SKOV3
Description: as §2, §3, §4

[6] = system: Hep3B; experiment: ATP luminescence proliferation assay, Hep3B
Description: as §2, §3, §4

[7] = system: HPAC; experiment: ATP luminescence proliferation assay, HPAC
Description: as §2, §3, §4

[8] = system: Nomo-1; experiment: ATP luminescence proliferation assay, Nomo-1
Description: as §2, §3, §4

[9] = system: HL-60; experiment: 3H thymidine proliferation assay, HL-60
In short: as §1

[10] = system: SK-BR3; experiment: 3H thymidine proliferation assay, SK-BR3; settings: 3H thymidine method, 72 h incubation
In short: as §1

[11] = system: Raji; experiment: 3H thymidine proliferation assay, Raji
In short: as §1

[12] = system: A2058; experiment: 3H thymidine proliferation assay, A2058; settings: 3H thymidine method, 72 h incubation
In short: as §1

[13] = system: OVCAR8; experiment: 3H thymidine proliferation assay, OVCAR8
In short: as §1

[14] = system: DMS53; experiment: ATP luminescence proliferation assay, DMS53
Description: as §2, §3, §4

[15] = system: HPAC; experiment: 3H thymidine proliferation assay, HPAC
In short: as §1

[16] = system: BT474; experiment: ATP luminescence proliferation assay, BT474
Description: as §2, §3, §4

[17] = system: BT474; experiment: 3H thymidine proliferation assay, BT474
In short: as §1

[18] = system: 786-O; experiment: 3H thymidine proliferation assay, 786-O
In short: as §1

[19] = system: Nomo-1; experiment: 3H thymidine proliferation assay, Nomo-1
In short: as §1

[20] = system: H740; experiment: 3H thymidine proliferation assay, H740
In short: as §1

[21] = system: DMS53; experiment: 3H thymidine proliferation assay, DMS53
In short: as §1

[22] = 3H thymidine method, 72 h incubation, read-out: EC50, PC3
[23] = 3H thymidine method, 72 h incubation, read-out: EC50, OVCAR3
[24] = ATP luminescence, NCI-H460, 72 h incubation, read-out: EC50 NCI-H460 (72 h)
[25] = ATP luminescence, CEM-C1, 72 h incubation, read-out: EC50 CEM-C1 (72 h)
[26] = ATP luminescence, SKOV3, 72 h incubation, read-out: EC50 SKOV3 (72 h)
[27] = ATP luminescence, 48 h incubation, read-out: EC50 Hep3B (48 h)
[28] = ATP luminescence, 72 h incubation, read-out: EC50 HPAC (72 h)
[29] = 3H thymidine method, 72 h incubation, read-out: EC50, HL-60
[30] = 3H thymidine method, 72 h incubation, read-out: EC50, Raji
[31] = 3H thymidine method, 72 h incubation, read-out: EC50, OVCAR8
[32] = 3H thymidine method, 72 h incubation, read-out: EC50, HPAC
[33] = ATP luminescence, BT474, 48 h incubation, read-out: EC50 BT474 (48 h)
[34] = 3H thymidine method, 72 h incubation, read-out: EC50, BT474
[35] = 3H thymidine method, 72 h incubation, read-out: EC50, 786-O
[36] = 3H thymidine method, 72 h incubation, read-out: EC50, Nomo-1
[37] = 3H thymidine method, 72 h incubation, read-out: EC50, H740
[38] = 3H thymidine method, 72 h incubation, read-out: EC50, DMS53

## CC[C@H](C)[C@H](NC(=O)[C@H]1CCCCN1C)C(=O)N(C)[C@H](C[C@@H](OC)c1nc(C(=O)N[C@H](CCC(=O)OC)Cc2ccccc2)cs1)C(C)C [Compound 26]
[1]; Homo sapiens, PC-3, read-out: EC50, PC3, 3H thymidine method, 72 h incubation
  EC50: 16 nM
[2]; Homo sapiens, OVCAR-3, read-out: EC50, OVCAR3, 3H thymidine method, 72 h incubation
  EC50: 3.2 nM
[3]; Homo sapiens, NCI-H460, 72 h, read-out: EC50 NCI-H460 (72 h), ATP luminescence, NCI-H460, 72 h incubation
  EC50: 90 nM
[4]; Homo sapiens, CEM/C1, 48 h, read-out: EC50 CEM-C1 (48 h), ATP luminescence, CEM-C1, 48 h incubation
  EC50: 61 nM
[5]; Homo sapiens, SK-OV-3, 72 h, read-out: EC50 SKOV3 (72 h), ATP luminescence, SKOV3, 72 h incubation
  EC50: 38 nM
[6]; Homo sapiens, 48 h, read-out: EC50 Hep3B (48 h), ATP luminescence, Hep3B, 48 h incubation
  EC50: 100 nM
[7]; Homo sapiens, 72 h, read-out: EC50 HPAC (72 h), ATP luminescence, HPAC, 72 h incubation
  EC50: 279 nM
[8]; Homo sapiens, NOMO-1, 48 h, read-out: EC50 Nomo-1 (48 h), ATP luminescence, Nomo-1, 48 h incubation
  EC50: 3.9 nM
[9]; Homo sapiens, HL-60, read-out: EC50, HL-60, 3H thymidine method, 72 h incubation
  EC50: 0.45 nM
[10]; Homo sapiens, SK-BR-3
  EC50: 32 nM
[11]; Homo sapiens, Raji, read-out: EC50, Raji, 3H thymidine method, 72 h incubation
  EC50: 7 nM
[12]; Homo sapiens, A2058
  EC50: 25 nM
[13]; Homo sapiens, OVCAR-8, read-out: EC50, OVCAR8, 3H thymidine method, 72 h incubation
  EC50: 201 nM
[14]; Homo sapiens, DMS-53, 72 h, read-out: EC50 DMS53 (72 h), ATP luminescence, DMS53, 72 h incubation
  EC50: 193 nM
[15]; Homo sapiens, HPAC, read-out: EC50, HPAC, 3H thymidine method, 72 h incubation
  EC50: 11 nM
[16]; Homo sapiens, BT-474, 48 h, read-out: EC50 BT474 (48 h), ATP luminescence, BT474, 48 h incubation
  EC50: 19 nM
[17]; Homo sapiens, BT-474, read-out: EC50, BT474, 3H thymidine method, 72 h incubation
  EC50: 11 nM
[18]; Homo sapiens, 786-0, read-out: EC50, 786-O, 3H thymidine method, 72 h incubation
  EC50: 26 nM
[19]; Homo sapiens, NOMO-1, read-out: EC50, Nomo-1, 3H thymidine method, 72 h incubation
  EC50: 0.36 nM
[20]; Homo sapiens, read-out: EC50, H740, 3H thymidine method, 72 h incubation
  EC50: 3 nM
[21]; Homo sapiens, DMS-53, read-out: EC50, DMS53, 3H thymidine method, 72 h incubation
  EC50: 99 nM

## CC[C@H](C)[C@H](NC(=O)[C@H]1CCCCN1C)C(=O)N(COC(=O)CC(C)C)[C@H](C[C@@H](O)c1nc(C(=O)N[C@@H](Cc2ccccc2)C(=O)OC)cs1)C(C)C [Compound 28]
[1]; [22]
  EC50: > 100 nM
[2]; [23]
  EC50: 3.1 nM
[3]; [24]
  EC50: 35 nM
[4]; [25]
  EC50: 11 nM
[5]; [26]
  EC50: 11 nM
[6]; [27]
  EC50: 17 nM
[7]; [28]
  EC50: 5.9 nM
[8]; ATP luminescence, Nomo-1, 72 h incubation, read-out: EC50 Nomo-1 (72 h)
  EC50: 0.82 nM
[9]; [29]
  EC50: 7.7 nM
[10]
  EC50: > 100 nM
[11]; [30]
  EC50: 13 nM
[12]
  EC50: 0.96 nM
[13]; [31]
  EC50: 27 nM
[14]; ATP luminescence, DMS53, 72 h incubation, read-out: EC50 DMS53 (72 h)
  EC50: 58 nM
[15]; [32]
  EC50: 34 nM
[16]; [33]
  EC50: 12 nM
[17]; [34]
  EC50: > 100 nM
[18]; [35]
  EC50: 61 nM
[19]; [36]
  EC50: 0.2 nM
[20]; [37]
  EC50: 5.8 nM
[21]; [38]
  EC50: > 100 nM

## CC[C@H](C)[C@H](NC(=O)[C@H]1CCCCN1C)C(=O)N(COC(=O)CC(C)C)[C@H](C[C@@H](OC(C)=O)c1nc(C(=O)N[C@@H](Cc2ccccc2)C(=O)OC)cs1)C(C)C [Compound 29]
[1]; [22]
  EC50: 0.21 nM
[2]; [23]
  EC50: 0.02 nM
[3]; [24]
  EC50: 3 nM
[4]; [25]
  EC50: 0.85 nM
[5]; [26]
  EC50: 1.3 nM
[6]; [27]
  EC50: 1.6 nM
[7]; [28]
  EC50: 4.9 nM
[8]; ATP luminescence, Nomo-1, 48 h incubation, read-out: EC50 Nomo-1 (48 h)
  EC50: 0.24 nM
[9]; [29]
  EC50: 0.0099 nM
[10]
  EC50: 1.1 nM
[11]; [30]
  EC50: 0.024 nM
[12]
  EC50: 0.4 nM
[13]; [31]
  EC50: 0.7 nM
[14]; ATP luminescence, DMS53, 48 h incubation, read-out: EC50 DMS53 (48 h)
  EC50: 5.3 nM
[15]; [32]
  EC50: 0.069 nM
[16]; [33]
  EC50: 1.5 nM
[17]; [34]
  EC50: 0.57 nM
[18]; [35]
  EC50: 1.2 nM
[19]; [36]
  EC50: 0.0075 nM
[20]; [37]
  EC50: 0.41 nM
[21]; [38]
  EC50: 0.28 nM
